Converted amounts (≈) assume the structure as drawn.
Columns and labels:
[1] = Stability in mouse plasma at 1 uM incubated for 6 hrs by LC-MS/MS analysis; format: ADME, cell-free; details: read-out: Stability
Escherichia coli = test: Antibacterial activity against Escherichia coli ATCC25922 assessed as reduction in bacterial growth measured after 18 to 24 hrs by CLSI protocol based method; format: functional; details: time 18-24 hrs
Pseudomonas aeruginosa [2] = test: Antibacterial activity against Pseudomonas aeruginosa ATCC27853 assessed as reduction in bacterial growth measured after 18 to 24 hrs by CLSI protocol based method; format: functional; details: time 18-24 hrs
Pseudomonas aeruginosa [3] = test: Antibacterial activity against Pseudomonas aeruginosa clinical isolate PAE22-1 assessed as reduction in bacterial growth measured after 18 to 24 hrs by CLSI protocol based method; format: functional; details: time 18-24 hrs
Klebsiella pneumoniae [4] = test: Antibacterial activity against Klebsiella pneumoniae ATCC700603 assessed as reduction in bacterial growth measured after 18 to 24 hrs by CLSI protocol based method; format: functional; details: time 18-24 hrs
Klebsiella pneumoniae [5] = test: Antibacterial activity against Klebsiella pneumoniae clinical isolate KPN+22-1 assessed as reduction in bacterial growth measured after 18 to 24 hrs by CLSI protocol based method; format: functional; details: time 18-24 hrs
[6] = Metabolic stability in human liver microsomes assessed as half life at 1 uM preincubated for 5 mins followed by NADPH addition and measured after 5 to 60 mins by LC-MS analysis; format: ADME, Microsome; details: liver microsomes, time 10-65 min
[7] = Metabolic stability in rat liver microsomes assessed as half life at 1 uM preincubated for 5 mins followed by NADPH addition and measured after 5 to 60 mins by LC-MS analysis; format: ADME, Microsome; details: liver microsomes, time 10-65 min
[8] = Metabolic stability in mouse liver microsomes assessed as half life at 1 uM preincubated for 5 mins followed by NADPH addition and measured after 5 to 60 mins by LC-MS analysis; format: ADME, Microsome; details: liver microsomes, time 10-65 min
[9] = Metabolic stability in human liver microsomes assessed as intrinsic clearance at 1 uM preincubated for 5 mins followed by NADPH addition and measured after 5 to 60 mins by LC-MS analysis; format: ADME, Microsome; details: time 10-65 min, read-out: CLH
[10] = Metabolic stability in rat liver microsomes assessed as intrinsic clearance at 1 uM preincubated for 5 mins followed by NADPH addition and measured after 5 to 60 mins by LC-MS analysis; format: ADME, Microsome; details: liver microsomes, time 10-65 min, read-out: CLH
[11] = Metabolic stability in mouse liver microsomes assessed as intrinsic clearance at 1 uM preincubated for 5 mins followed by NADPH addition and measured after 5 to 60 mins by LC-MS analysis; format: ADME, Microsome; details: liver microsomes, time 10-65 min, read-out: CLH
[12] = Intrinsic clearance in human; format: ADME; details: read-out: CLH
[13] = Intrinsic clearance in rat; format: ADME; details: read-out: CLH
[14] = Intrinsic clearance in mouse; format: ADME, organism-based; details: read-out: CLH
HepG2 = test: Cytotoxicity against human HepG2 cells assessed as inhibition of cell growth measured after 48 hrs by MTT assay; format: functional, cell-based; details: HepG2, 48 h
[15] = Plasma protein binding in human assessed as drug recovery at 1 uM incubated for 6 hrs by LC-MS/MS analysis; format: ADME, cell-free; details: read-out: Drug recovery
[16] = Stability in human plasma at 1 uM incubated for 6 hrs by LC-MS/MS analysis; format: ADME, cell-free; details: read-out: Stability
[17] = Plasma protein binding in rat assessed as drug recovery at 1 uM incubated for 6 hrs by LC-MS/MS analysis; format: ADME, cell-free; details: read-out: Drug recovery
[18] = Stability in rat plasma at 1 uM incubated for 6 hrs by LC-MS/MS analysis; format: ADME, cell-free; details: read-out: Stability
[19] = Plasma protein binding in mouse assessed as drug recovery at 1 uM incubated for 6 hrs by LC-MS/MS analysis; format: ADME, cell-free; details: read-out: Drug recovery
[20] = Half life in male Sprague-Dawley rat at 10 mg/kg, IG measured upto 24 hrs by LC-MS analysis; format: ADME, organism-based; details: in vivo, po
[21] = Tmax in male Sprague-Dawley rat at 10 mg/kg, IG measured upto 24 hrs by LC-MS analysis; format: ADME, organism-based; details: in vivo, po
[22] = Cmax in male Sprague-Dawley rat at 10 mg/kg, IG measured upto 24 hrs by LC-MS analysis; format: ADME, organism-based; details: in vivo, po
[23] = AUC (0 to t) in male Sprague-Dawley rat at 10 mg/kg, IG measured upto 24 hrs by LC-MS analysis; format: ADME, organism-based; details: in vivo, po
[24] = MRT (0 to t) in male Sprague-Dawley rat at 10 mg/kg, IG measured upto 24 hrs by LC-MS analysis; format: ADME, organism-based; details: in vivo, po
[25] = Oral bioavailability in male Sprague-Dawley rat at 10 mg/kg, IG measured upto 24 hrs by LC-MS analysis; format: ADME, organism-based; details: in vivo
[26] = Half life in male Sprague-Dawley rat at 1 mg/kg, iv measured upto 24 hrs by LC-MS analysis; format: ADME, organism-based; details: in vivo
[27] = AUC (0 to t) in male Sprague-Dawley rat at 1 mg/kg, iv measured upto 24 hrs by LC-MS analysis; format: ADME, organism-based; details: in vivo
[28] = Clearance in male Sprague-Dawley rat at 1 mg/kg, iv measured upto 24 hrs by LC-MS analysis; format: ADME, organism-based; details: in vivo
[29] = MRT (0 to t) in male Sprague-Dawley rat at 1 mg/kg, iv measured upto 24 hrs by LC-MS analysis; format: ADME, organism-based; details: in vivo
[30] = Volume of distribution at steady state in male Sprague-Dawley rat at 1 mg/kg, iv measured upto 24 hrs by LC-MS analysis; format: ADME, organism-based; details: in vivo, read-out: Vdss

C[C@@H](O)[C@H](NC(=O)c1ccc(C#Cc2ccc(CN3CCOCC3)cc2)cc1)C(=O)NO
remaining at 6 h, 1 µM [1]: 93.2%
MIC (Escherichia coli): 0.5 µg/mL (≈ 1.14 µM)
MIC (Pseudomonas aeruginosa [2]): 4 µg/mL (≈ 9.14 µM)
MIC (Pseudomonas aeruginosa [3]): 2 µg/mL (≈ 4.57 µM)
MIC (Klebsiella pneumoniae [4]): 8 µg/mL (≈ 18.3 µM)
MIC (Klebsiella pneumoniae [5]): 1 µg/mL (≈ 2.29 µM)
half-life at 1 µM [6]: 16.8 h
half-life at 1 µM [7]: 0.362 h
half-life at 1 µM [8]: 1.23 h
microsomal CLint at 1 µM [9]: 1.38 µL/min/mg
microsomal CLint at 1 µM [10]: 64 µL/min/mg
microsomal CLint at 1 µM [11]: 18.8 µL/min/mg
CLint scaled [12]: 1.3 mL/min/kg
CLint scaled [13]: 115 mL/min/kg
CLint scaled [14]: 74.2 mL/min/kg
IC50 (HepG2): > 30 µM
recovery at 6 h, 1 µM [15]: 101%
remaining at 6 h, 1 µM [16]: 106%
recovery at 6 h, 1 µM [17]: 91.7%
remaining at 6 h, 1 µM [18]: 94.5%
recovery at 6 h, 1 µM [19]: 98.6%
half-life [20]: 1.12 h
Tmax [21]: 0.25 h
Cmax [22]: 262 ng/mL
AUC(0-t) at 24 h [23]: 243 ng·h/mL
MRT last at 24 h [24]: 1.09 h
bioavailability [25]: 10.6%
half-life [26]: 0.29 h
AUC(0-t) at 24 h [27]: 249 ng·h/mL
clearance [28]: 66.7 mL/min/kg
MRT last at 24 h [29]: 0.24 h
Vd [30]: 0.98 L/kg

C[C@@H](O)[C@H](NC(=O)c1ccc(C#Cc2ccc(/C=N/N3CCNCC3)cc2)cc1)C(=O)NO
MIC (Escherichia coli): 4 µg/mL (≈ 8.9 µM)
MIC (Pseudomonas aeruginosa [2]): > 64 µg/mL
MIC (Pseudomonas aeruginosa [3]): > 64 µg/mL
MIC (Klebsiella pneumoniae [4]): > 64 µg/mL
MIC (Klebsiella pneumoniae [5]): > 64 µg/mL

CCN1CCN(/N=C/c2ccc(C#Cc3ccc(C(=O)N[C@H](C(=O)NO)[C@@H](C)O)cc3)cn2)CC1
MIC (Escherichia coli): 16 µg/mL (≈ 33.4 µM)
MIC (Pseudomonas aeruginosa [2]): 4 µg/mL (≈ 8.36 µM)
MIC (Pseudomonas aeruginosa [3]): 8 µg/mL (≈ 16.7 µM)
MIC (Klebsiella pneumoniae [4]): > 64 µg/mL
MIC (Klebsiella pneumoniae [5]): 64 µg/mL (≈ 134 µM)

C[C@@H](O)[C@H](NC(=O)c1ccc(C#Cc2ccc(/C=N/N3CCN(C(=O)C4CC4)CC3)cc2)cc1)C(=O)NO
MIC (Escherichia coli): 0.03 µg/mL (≈ 0.058 µM)
MIC (Pseudomonas aeruginosa [2]): 2 µg/mL (≈ 3.86 µM)
MIC (Pseudomonas aeruginosa [3]): 4 µg/mL (≈ 7.73 µM)
MIC (Klebsiella pneumoniae [4]): 16 µg/mL (≈ 30.9 µM)
MIC (Klebsiella pneumoniae [5]): 2 µg/mL (≈ 3.86 µM)
half-life at 1 µM [6]: 4.9 h
half-life at 1 µM [7]: 4.58 h
half-life at 1 µM [8]: 2.08 h
microsomal CLint at 1 µM [9]: 4.73 µL/min/mg
microsomal CLint at 1 µM [10]: 5.05 µL/min/mg
microsomal CLint at 1 µM [11]: 12.2 µL/min/mg
CLint scaled [12]: 4.47 mL/min/kg
CLint scaled [13]: 9.09 mL/min/kg
CLint scaled [14]: 48 mL/min/kg

C[C@@H](O)[C@H](NC(=O)c1ccc(C#Cc2ccc(/C=N/N3CCN(C)CC3)nc2)cc1)C(=O)NO
MIC (Escherichia coli): 8 µg/mL (≈ 17.2 µM)
MIC (Pseudomonas aeruginosa [2]): 8 µg/mL (≈ 17.2 µM)
MIC (Pseudomonas aeruginosa [3]): 8 µg/mL (≈ 17.2 µM)
MIC (Klebsiella pneumoniae [5]): 32 µg/mL (≈ 68.9 µM)

CC(=O)N1CCN(/N=C/c2ccc(C#Cc3ccc(C(=O)N[C@H](C(=O)NO)[C@@H](C)O)cc3)cc2)CC1
MIC (Escherichia coli): 0.5 µg/mL (≈ 1.02 µM)
MIC (Pseudomonas aeruginosa [2]): > 64 µg/mL
MIC (Pseudomonas aeruginosa [3]): 2 µg/mL (≈ 4.07 µM)
MIC (Klebsiella pneumoniae [4]): > 64 µg/mL
MIC (Klebsiella pneumoniae [5]): 2 µg/mL (≈ 4.07 µM)

CCOC(=O)N1CCN(/N=C/c2ccc(C#Cc3ccc(C(=O)N[C@H](C(=O)NO)[C@@H](C)O)cc3)cc2)CC1
MIC (Escherichia coli): 0.06 µg/mL (≈ 0.115 µM)
MIC (Pseudomonas aeruginosa [2]): 8 µg/mL (≈ 15.3 µM)
MIC (Pseudomonas aeruginosa [3]): 8 µg/mL (≈ 15.3 µM)
MIC (Klebsiella pneumoniae [4]): 16 µg/mL (≈ 30.7 µM)
MIC (Klebsiella pneumoniae [5]): 4 µg/mL (≈ 7.67 µM)

C#CCN1CCN(/N=C/c2ccc(C#Cc3ccc(C(=O)N[C@H](C(=O)NO)[C@@H](C)O)cc3)cc2)CC1
MIC (Escherichia coli): 0.03 µg/mL (≈ 0.0615 µM)
MIC (Pseudomonas aeruginosa [2]): 2 µg/mL (≈ 4.1 µM)
MIC (Pseudomonas aeruginosa [3]): 8 µg/mL (≈ 16.4 µM)
MIC (Klebsiella pneumoniae [4]): 32 µg/mL (≈ 65.6 µM)
MIC (Klebsiella pneumoniae [5]): 2 µg/mL (≈ 4.1 µM)

C[C@@H](O)[C@H](NC(=O)c1ccc(C#Cc2ccc(/C=N/N3CCCCC3)nc2)cc1)C(=O)NO
MIC (Escherichia coli): 1 µg/mL (≈ 2.22 µM)
MIC (Pseudomonas aeruginosa [2]): 16 µg/mL (≈ 35.6 µM)
MIC (Pseudomonas aeruginosa [3]): 2 µg/mL (≈ 4.45 µM)
MIC (Klebsiella pneumoniae [5]): 8 µg/mL (≈ 17.8 µM)

CCC(=O)N1CCN(/N=C/c2ccc(C#Cc3ccc(C(=O)N[C@H](C(=O)NO)[C@@H](C)O)cc3)cn2)CC1
MIC (Escherichia coli): 8 µg/mL (≈ 15.8 µM)
MIC (Pseudomonas aeruginosa [2]): 16 µg/mL (≈ 31.6 µM)
MIC (Pseudomonas aeruginosa [3]): 16 µg/mL (≈ 31.6 µM)
MIC (Klebsiella pneumoniae [4]): > 64 µg/mL
MIC (Klebsiella pneumoniae [5]): 32 µg/mL (≈ 63.2 µM)

C[C@@H](O)[C@H](NC(=O)c1ccc(C#Cc2ccc(/C=N/N3CCN(C(=O)C(C)(C)C)CC3)nc2)cc1)C(=O)NO
MIC (Escherichia coli): 4 µg/mL (≈ 7.48 µM)
MIC (Pseudomonas aeruginosa [2]): 16 µg/mL (≈ 29.9 µM)
MIC (Pseudomonas aeruginosa [3]): 16 µg/mL (≈ 29.9 µM)
MIC (Klebsiella pneumoniae [4]): > 64 µg/mL
MIC (Klebsiella pneumoniae [5]): 16 µg/mL (≈ 29.9 µM)

C[C@@H](O)[C@H](NC(=O)c1ccc(C#Cc2ccc(/C=N/N3CCOCC3)nc2)cc1)C(=O)NO
MIC (Escherichia coli): 4 µg/mL (≈ 8.86 µM)
MIC (Pseudomonas aeruginosa [2]): 16 µg/mL (≈ 35.4 µM)
MIC (Pseudomonas aeruginosa [3]): 2 µg/mL (≈ 4.43 µM)
MIC (Klebsiella pneumoniae [5]): 16 µg/mL (≈ 35.4 µM)

CCN1CCN(/N=C/c2ccc(C#Cc3ccc(C(=O)N[C@H](C(=O)NO)[C@@H](C)O)cc3)cc2)CC1
MIC (Escherichia coli): 0.5 µg/mL (≈ 1.05 µM)
MIC (Pseudomonas aeruginosa [2]): 4 µg/mL (≈ 8.38 µM)
MIC (Pseudomonas aeruginosa [3]): 2 µg/mL (≈ 4.19 µM)
MIC (Klebsiella pneumoniae [4]): 16 µg/mL (≈ 33.5 µM)
MIC (Klebsiella pneumoniae [5]): 4 µg/mL (≈ 8.38 µM)
